22 molecules from patent US9969742B2, “Imidazotriazinone compounds” (Ironwood Pharmaceuticals, Inc., priority 2012, dated 2018) can be followed below.

Where two headings read alike, the source gives them in different places.

As usually defined, the IC50 is the concentration needed to halve the response being measured.

Holding throughout (assay type): biochemical
One assay concerns the target T1, PDE1B (Homo sapiens, UniProt Q01064).
T1 construct: purchased Reaction Biology Corporation, Malvern, Pa
Nature of the assay: Phosphodiesterase enzyme screening assay, PDE1B. As to conditions: Table 1; ratio of IC50 values; value greater than 1 indicates greater selectivity for PDE9A2. An excerpt: (§1) Compounds of the invention were screened against PDE1A, PDE1B, PDE2A, PDE3A, PDE3B, PDE4A1A, PDE4B1, PDE4D3, PDE5A1, PDE6C, PDE7A, PDE8A1, PDE9A2, PDE10A2 AND PDE11A isoforms of the phosphodiesterase enzyme to determine activity and overall selectivity through comparative analysis. […] Where 8-methoxy-IBMX and Zaprinast were used as reference inhibitors.
(§2) The phosphodiesterase enzyme isoforms were obtained from a commercial retailer (Reaction Biology Corporation, Malvern, Pa.) for use in the instant screening assay.
(§3) The analysis was completed using the Caliper LabChip 3000 and a 12-sipper LabChip. LabChip assays are separations-based, meaning that the product and substrate are electrophoretically separated, thereby minimizing interferences and yielding the highest data quality available on any screening platform. […] High Z′ values, few false positives, few false negatives and analytical quality reproducibility are the reasons cited for the increasing reliance on the LabChip assays.
(§4) The off-chip incubation mobility-shift phosphodiesterase assay uses a microfluidic chip to measure the conversion of a fluorescent cyclic AMP substrate to a 5′-AMP product, or a cyclic GMP substrate to a 5′-GMP product. The reaction mixture, from a microtiter plate well, is introduced through a capillary sipper onto the chip, where the fluorescent substrate and product are separated by electrophoresis and detected via laser-induced fluorescence. […] The precision of microfluidics allows researchers to detect subtle interactions between drug candidates and therapeutic targets.
(§5) Reactions were carried out in 100 mM HEPES (pH 7.5), 5 mM MgCl2, 1 mM DTT, 0.003% Brij, 4.0 μM cGMP substrate. The reaction was started by addition of cGMP or cAMP and incubated for 1 hour at R.T. The reaction was terminated by the addition of stop buffer containing 100 mM HEPES (pH 7.5), 15 mM EDTA, 0.015% Brij-35, 5% DMSO. Cyclic AMP/GMP substrate and 5′-AMP/5′-GMP product were separated by charge using electrophoretic mobility shift. Product formed was compared to control wells to determine inhibition or enhancement of enzyme activity.
(§6) Data points were averages of quadruplicate wells and error bars represented the SEM for each point.

The target in a further assay is T2, PDE1A (Homo sapiens, UniProt P54750).
T2 construct: purchased Reaction Biology Corporation, Malvern, Pa
T2 sequence (P54750 whole entry): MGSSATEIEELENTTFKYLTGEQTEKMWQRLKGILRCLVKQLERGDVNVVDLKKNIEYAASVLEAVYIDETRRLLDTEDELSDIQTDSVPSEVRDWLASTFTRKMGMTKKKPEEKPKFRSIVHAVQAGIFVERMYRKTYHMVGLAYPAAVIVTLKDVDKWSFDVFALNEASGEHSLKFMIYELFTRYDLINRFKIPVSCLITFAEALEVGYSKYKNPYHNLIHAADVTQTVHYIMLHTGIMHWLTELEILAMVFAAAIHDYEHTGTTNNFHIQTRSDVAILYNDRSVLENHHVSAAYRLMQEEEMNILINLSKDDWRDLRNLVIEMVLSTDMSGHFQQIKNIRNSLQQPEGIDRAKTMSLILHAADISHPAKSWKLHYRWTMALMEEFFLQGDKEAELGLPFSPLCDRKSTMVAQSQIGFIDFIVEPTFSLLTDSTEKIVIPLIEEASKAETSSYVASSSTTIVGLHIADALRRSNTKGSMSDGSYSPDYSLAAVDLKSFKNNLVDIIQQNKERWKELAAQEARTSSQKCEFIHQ
Nature of the assay: Phosphodiesterase enzyme screening assay, PDE1A. As to conditions: Table 1; ratio of IC50 values; value greater than 1 indicates greater selectivity for PDE9A2.
From the text: as §1, §2, §3, §4, §5, §6

The target in the next assay is T3, PDE9A2 (Homo sapiens, UniProt O76083).
T3 construct: purchased Reaction Biology Corporation, Malvern, Pa
T3 sequence (O76083 1-533 isoform O76083-2): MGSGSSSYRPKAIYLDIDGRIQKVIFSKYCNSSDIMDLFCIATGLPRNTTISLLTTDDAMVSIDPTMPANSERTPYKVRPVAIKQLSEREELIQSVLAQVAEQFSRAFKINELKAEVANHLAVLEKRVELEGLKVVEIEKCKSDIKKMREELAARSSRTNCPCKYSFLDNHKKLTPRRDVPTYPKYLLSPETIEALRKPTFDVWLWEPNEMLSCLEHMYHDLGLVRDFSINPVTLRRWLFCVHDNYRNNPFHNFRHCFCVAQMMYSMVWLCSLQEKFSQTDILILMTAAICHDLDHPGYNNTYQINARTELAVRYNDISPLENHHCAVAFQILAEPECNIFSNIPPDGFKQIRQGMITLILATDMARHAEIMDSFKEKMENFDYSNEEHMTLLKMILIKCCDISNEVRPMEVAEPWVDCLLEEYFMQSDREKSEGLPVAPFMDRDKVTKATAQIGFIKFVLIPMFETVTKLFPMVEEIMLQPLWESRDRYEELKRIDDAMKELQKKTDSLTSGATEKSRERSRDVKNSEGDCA
The assay can be described thus: Phosphodiesterase enzyme screening assay, PDE9A2. As to conditions: read-out: Band (PDE9A2 IC50). The gist of the method:
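Read-out was electrophoretic mobility-shift separation on chip of fluorescent cyclic nucleotide from 5′-AMP/5′-GMP, with inhibition or enhancement judged against control wells (quadruplicate means). Reactions lasted 1 h at RT in HEPES pH 7.5 buffer with MgCl2, DTT and Brij plus 4.0 μM cGMP substrate, then were halted with EDTA stop buffer.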

Where [1] appears, read: 4.0 μM cGMP substrate, 1 hour at R.T.
The mark [2] stands for this setting: Table 2, 10 concentrations, 4.0 μM cGMP substrate, 1 hour at R.T.
[3] abbreviates: Table 1, 10 concentrations, 4.0 μM cGMP substrate, 1 hour at R.T.

T1 sequence (Q01064 whole entry): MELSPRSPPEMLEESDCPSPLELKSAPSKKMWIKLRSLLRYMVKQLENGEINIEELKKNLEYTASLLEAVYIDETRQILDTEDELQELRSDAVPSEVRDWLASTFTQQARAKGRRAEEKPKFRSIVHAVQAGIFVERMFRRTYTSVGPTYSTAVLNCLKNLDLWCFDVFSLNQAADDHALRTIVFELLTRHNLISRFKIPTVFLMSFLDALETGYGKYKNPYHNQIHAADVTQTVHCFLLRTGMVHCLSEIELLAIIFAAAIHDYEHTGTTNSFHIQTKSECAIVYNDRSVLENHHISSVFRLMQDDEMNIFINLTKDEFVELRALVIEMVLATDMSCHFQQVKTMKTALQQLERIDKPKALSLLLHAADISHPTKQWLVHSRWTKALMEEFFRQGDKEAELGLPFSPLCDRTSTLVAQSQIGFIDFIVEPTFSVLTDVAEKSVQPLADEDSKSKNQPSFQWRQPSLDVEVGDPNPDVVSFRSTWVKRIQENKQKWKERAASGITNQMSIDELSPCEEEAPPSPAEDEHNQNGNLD

`CC1CN(Cc2ccccc2)CC1c1nn2c(C3CCCOC3)ncc2c(=O)[nH]1` (single isomer, unassigned) [2-((3,4-trans)-1-benzyl-4-methylpyrrolidin-3-yl)-7-(tetrahydro-2H-pyran-3-yl)imidazo[5,1-f][1,2,4]triazin-4(3H)-one]: the “PDE1B selectivity (versus PDE9A2)” value on PDE1B was determined as 38. Further, at PDE1A, the “PDE1A selectivity (versus PDE9A2)” value worked out at 28.
On the same counts, the results for `CC1CN(Cc2ncccn2)CC1c1nn2c(C3CCC(F)(F)CC3)ncc2c(=O)[nH]1` (single isomer, unassigned; (+)) [(+)-7-(4,4-difluorocyclohexyl)-2-((3,4-trans)-4-methyl-1-(pyrimidin-2-ylmethyl)pyrrolidin-3-yl)imidazo[5,1-f][1,2,4]triazin-4(3H)-one] are 313 and 165.
For `CC1CN(C(=O)c2ccccc2)CC1c1nn2c(C3CCOCC3)ncc2c(=O)[nH]1` (single isomer, unassigned; (-)) [(−)-2-((3,4-trans)-1-benzoyl-4-methylpyrrolidin-3-yl)-7-(tet] [(−)-2-((3,4-trans)-1-benzoyl-4-methylpyrrolidin-3-yl)-7-(tetrahydro-2H-pyran-4-yl)imidazo[5,1-f][1,2,4]triazin-4(3H)-one], the “PDE1B selectivity (versus PDE9A2)” value on PDE1B worked out at 32. In addition, the “PDE1A selectivity (versus PDE9A2)” value at PDE1A is on record as 26.
For the molecule `CC1CN(Cc2ccccc2)CC1c1nn2c(C3CCOCC3)ncc2c(=O)[nH]1` (single isomer, unassigned; (+)) [(+)-2-((3,4-trans)-1-benzyl-4-methylpyrrolidin-3-yl)-7-(tetr] [(+)-2-((3,4-trans)-1-benzyl-4-methylpyrrolidin-3-yl)-7-(tetrahydro-2H-pyran-4-yl)imidazo[1,5-f][1,2,4]triazin-4(3H)-one], the “PDE1B selectivity (versus PDE9A2)” value at PDE1B is given as 5. Also, on PDE1A, the “PDE1A selectivity (versus PDE9A2)” value stood at 5.
For the molecule `Cc1ccc(F)cc1-c1ncc2c(=O)[nH]c(C3CN(Cc4ccccc4)CC3C)nn12` (single isomer, unassigned; (+)) [(+)-2-((3,4-trans)-1-benzyl-4-methylpyrrolidin-3-yl)-7-(5-fl] [(+)-2-((3,4-trans)-1-benzyl-4-methylpyrrolidin-3-yl)-7-(5-fluoro-2-methylphenyl)imidazo[1,5-f][1,2,4]triazin-4(3H)-one], the “PDE1B selectivity (versus PDE9A2)” value on PDE1B came to 109. Also, the “PDE1A selectivity (versus PDE9A2)” value on PDE1A is reported as 247.
On to `CC1CN(Cc2ncccn2)CC1c1nn2c(C3CCOCC3)ncc2c(=O)[nH]1` (single isomer, unassigned; (+)) [(+)-2-((3,4-trans)-4-methyl-1-(pyrimidin-2-ylmethyl)pyrrolid] [(+)-2-((3,4-trans)-4-methyl-1-(pyrimidin-2-ylmethyl)pyrrolidin-3-yl)-7-(tetrahydro-2H-pyran-4-yl)imidazo[5,1-f][1,2,4]triazin-4(3H)-one], for which the “PDE1B selectivity (versus PDE9A2)” value on PDE1B is 386. The “PDE1A selectivity (versus PDE9A2)” value at PDE1A was found to be 393.
On the same counts, the results for `CC1CN(Cc2ncccn2)CC1c1nn2c(C3CCOC3)ncc2c(=O)[nH]1` (single isomer, unassigned; (+)) [(+)-2-((3,4-trans)-4-methyl-1-(pyrimidin-2-ylmethyl)pyrrolid] [(+)-2-((3,4-trans)-4-methyl-1-(pyrimidin-2-ylmethyl)pyrrolidin-3-yl)-7-(tetrahydrofuran-3-yl)imidazo[5,1-f][1,2,4]triazin-4(3H)-one] are 58 and 28.
For `Cc1ccc(Cl)cc1-c1ncc2c(=O)[nH]c(C3CN(Cc4ccccc4)CC3C)nn12` (single isomer, unassigned; (+)) [(+)-2-((3,4-trans)-1-benzyl-4-methylpyrrolidin-3-yl)-7-(5-chloro-2-methylphenyl)imidazo[5,1-f][1,2,4]triazin-4(3H)-one], the “PDE1B selectivity (versus PDE9A2)” value on PDE1B was 142. On PDE1A, the “PDE1A selectivity (versus PDE9A2)” value is listed as 276.
As to `CC1CN(Cc2ncccn2)CC1c1nn2c(-c3ccccc3C(F)(F)F)ncc2c(=O)[nH]1` (single isomer, unassigned; (+)), the IC50 at PDE9A2 (setting [1]) is < 1000 nM.
As to `CC1CN(CC(F)(F)F)CC1c1nn2c(C3CCOCC3)ncc2c(=O)[nH]1` (single isomer, unassigned; (+)) [(+)-2-((3,4-trans)-4-methyl-1-(2,2,2-trifluoroethyl)pyrrolidin-3-yl)-7-(tetrahydro-2H-pyran-4-yl)imidazo[5,1-f][1,2,4]triazin-4(3H)-one], the IC50 on PDE9A2 (setting [2]) was < 1000 nM.
`CC1CN(C(C)c2ccccc2)CC1c1nn2c(C3CCOCC3)ncc2c(=O)[nH]1` (single isomer, unassigned; (+)): the IC50 on PDE9A2 (setting [3]) was < 1000 nM.
On to `CC1CN(Cc2nc(C(F)(F)F)cc(C(F)(F)F)n2)CC1c1nn2c(C3CCOCC3)ncc2c(=O)[nH]1` (single isomer, unassigned; (+)) [(+)-2-((3,4-trans)-1-((4,6-bis(trifluoromethyl)pyrimidin-2-yl)methyl)-4-methylpyrrolidin-3-yl)-7-(tetrahydro-2H-pyran-4-yl)imidazo[5,1-f][1,2,4]triazin-4(3H)-one], for which, at PDE9A2 (setting [2]), the 50% inhibitory concentration (IC50) is < 1000 nM.
As to `CC1CN(Cc2nc3ccccn3n2)CC1c1nn2c(-c3ccccc3F)ncc2c(=O)[nH]1` (single isomer, unassigned; (+)) [(+)-2-((3,4-trans)-1-([1,2,4]triazolo[1,5-a]pyridin-2-ylmethyl)-4-methylpyrrolidin-3-yl)-7-(2-fluorophenyl)imidazo[5,1-f][1,2,4]triazin-4(3H)-one], at PDE9A2 (setting [1]), the concentration for half-maximal inhibition (IC50) was < 1000 nM.
Still for that read-out and setting: the result for `CC1CN(Cc2ccccc2)CC1c1nn2c(-c3ccccc3C(F)(F)F)ncc2c(=O)[nH]1` (single isomer, unassigned; (+)) reads < 1000 nM.
As to `CC1CN(Cc2cccnc2)CC1c1nn2c(-c3ccc(F)cc3)ncc2c(=O)[nH]1` (single isomer, unassigned; (+)) [(+)-7-(4-fluorophenyl)-2-((3,4-trans)-4-methyl-1-(pyridin-3-ylmethyl)pyrrolidin-3-yl)imidazo[5,1-f][1,2,4]triazin-4(3H)-one], the IC50 on PDE9A2 was < 1000 nM.
As for “(−)-2-((3,4-trans)-1-benzyl-4-methylpyrrolidin-3-yl)-7-(piperidin-4-yl)imidazo[1,5-f][1,2,4]triazin-4(3H)-one”, the IC50 on PDE9A2 (setting [3]) was > 10000 nM.
On the same count and under the same terms, the result for `CC1CN(C(C)c2ccccc2)CC1c1nn2c(C3CCOCC3)ncc2c(=O)[nH]1` (single isomer, unassigned; (-)) reads < 1000 nM; that for `CC1CN(C(=O)c2ncccn2)CC1c1nn2c(C3CCOCC3)ncc2c(=O)[nH]1` (single isomer, unassigned; (+)) [(+)-2-((3,4-trans)-4-methyl-1-(pyrimidine-2-carbonyl)pyrrolidin-3-yl)-7-(tetrahydro-2H-pyran-4-yl)imidazo[5,1-f][1,2,4]triazin-4(3H)-one], 1000 to 10000 nM.
Consider `CC1CN(C(=O)Cc2cncnc2)CC1c1nn2c(C3CCOCC3)ncc2c(=O)[nH]1` (single isomer, unassigned; (+)) [(+)-2-((3,4-trans)-4-methyl-1-(2-(pyrimidin-5-yl)acetyl)pyrrolidin-3-yl)-7-(tetrahydro-2H-pyran-4-yl)imidazo[5,1-f][1,2,4]triazin-4(3H)-one], for which the IC50 on PDE9A2 (setting [2]) is 1000 to 10000 nM.
On to `CC1CN(Cc2ccccc2)CC1c1nn2c(C3CCOCC3)ncc2c(=O)[nH]1` (single isomer, unassigned; (+)) [(+)-2-((3,4-trans)-1-benzyl-4-methylpyrrolidin-3-yl)-7-(tetrahydro-2H-pyran-4-yl)imidazo[1,5-f][1,2,4]triazin-4(3H)-one], for which, on PDE9A2 (setting [3]), the concentration for half-maximal inhibition (IC50) was < 1000 nM.
For `Cc1cnccc1-c1ncc2c(=O)[nH]c(C3CN(Cc4ccc(F)cc4)CC3C)nn12` (single isomer, unassigned; (+)) [(+)-2-((3,4-trans)-1-(4-fluorobenzyl)-4-methylpyrrolidin-3-yl)-7-(3-methylpyridin-4-yl) imidazo [5,1-f] [1,2,4] triazin-4 (3H)-one], the 50% inhibitory concentration (IC50) on PDE9A2 (setting [1]) was < 1000 nM.
On to `CC1CN(S(=O)(=O)c2ccc(F)cc2)CC1c1nn2c(C3CCOCC3)ncc2c(=O)[nH]1` (single isomer, unassigned; (-)) [(−)-2-((3,4-trans)-1-((4-fluorophenyl)sulfonyl)-4-methylpyrrolidin-3-yl)-7-(tetrahydro-2H-pyran-4-yl)imidazo[5,1-f][1,2,4]triazin-4(3H)-one], for which the IC50 at PDE9A2 (setting [3]) fell in the range of 1000 to 10000 nM.
